Data as given in PubChem BioAssay AID330 (DTP/NCI, 2004).
Values joined by “and” are separate entries in the source; they are usually repeats but may differ in a detail not shown here. Equal values may be shown once. Toxic doses and inconclusive results are not listed. Rule for the calls: active = survival T/C of 150% or more; inactive = T/C below 125% in these data.

System: P388 leukemia ip, CD2F1 mice, survival T/C
Test: NCI In Vivo Anticancer Drug Screen. Data for tumor model P388 Leukemia (intraperitoneal) in CD2F1 (CDF1) mice
Details: endpoint: median survival time, higher = longer survival
Method in brief: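 Mice carrying the transplanted tumor received test compound or vehicle. Survival was recorded in each group, and the value is the treated-group measurement divided by that of the vehicle-treated control group.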

[1] = dose: 60.0 mg/kg/injection, schedule: Q01DX005 (ip), vehicle: saline with Tween-80
[2] = dose: 120.0 mg/kg/injection, schedule: Q01DX005 (ip), vehicle: saline with Tween-80
[3] = dose: 60.0 mg/kg/injection, schedule: Q01DX005 (ip), vehicle: saline
[4] = dose: 120.0 mg/kg/injection, schedule: Q01DX005 (ip), vehicle: saline
[5] = dose: 240.0 mg/kg/injection, schedule: Q01DX005 (ip), vehicle: saline
[6] = dose: 100.0 mg/kg/injection, schedule: Q01DX001 (ip), vehicle: Klucel (hydroxypropylcellulose) (HPC)
[7] = dose: 200.0 mg/kg/injection, schedule: Q01DX001 (ip), vehicle: Klucel (hydroxypropylcellulose) (HPC)
[8] = dose: 30.0 mg/kg/injection, schedule: Q01DX005 (ip), vehicle: saline with Tween-80
[9] = dose: 240.0 mg/kg/injection, schedule: Q01DX005 (ip), vehicle: saline with Tween-80
[10] = dose: 50.0 mg/kg/injection, schedule: Q01DX009 (ip), vehicle: Klucel (hydroxypropylcellulose) (HPC)
[11] = dose: 100.0 mg/kg/injection, schedule: Q01DX009 (ip), vehicle: Klucel (hydroxypropylcellulose) (HPC)
[12] = dose: 200.0 mg/kg/injection, schedule: Q01DX009 (ip), vehicle: Klucel (hydroxypropylcellulose) (HPC)
[13] = dose: 50.0 mg/kg/injection, schedule: Q01DX005 (ip), vehicle: saline with Tween-80
[14] = dose: 100.0 mg/kg/injection, schedule: Q01DX005 (ip), vehicle: saline with Tween-80
[15] = dose: 200.0 mg/kg/injection, schedule: Q01DX005 (ip), vehicle: saline with Tween-80
[16] = dose: 100.0 mg/kg/injection, schedule: Q04DX002 (ip), vehicle: saline with Tween-80

Measured: T/C

CC1=NNC2(CCCCC2)C1
inactive: dose: 12.5 mg/kg/injection, schedule: Q01DX009 (ip), vehicle: water 113 % of control | dose: 25.0 mg/kg/injection, schedule: Q01DX009 (ip), vehicle: water 103 % of control | dose: 50.0 mg/kg/injection, schedule: Q01DX009 (ip), vehicle: water 94 % of control | dose: 100.0 mg/kg/injection, schedule: Q01DX009 (ip), vehicle: water 111 % of control | dose: 200.0 mg/kg/injection, schedule: Q01DX009 (ip), vehicle: water 106 % of control

C#C/C=C/CC1OC(CC)/C=C\C=C/CC1Cl (stereo not given)
inactive: dose: 2.0 mg/kg/injection, schedule: Q01DX009 (ip), vehicle: Klucel (hydroxypropylcellulose) (HPC) 100 % of control | dose: 4.0 mg/kg/injection, schedule: Q01DX009 (ip), vehicle: Klucel (hydroxypropylcellulose) (HPC) 109 % of control | dose: 8.0 mg/kg/injection, schedule: Q01DX009 (ip), vehicle: Klucel (hydroxypropylcellulose) (HPC) 96 % of control | dose: 16.0 mg/kg/injection, schedule: Q01DX009 (ip), vehicle: Klucel (hydroxypropylcellulose) (HPC) 104 % of control

O=C(O)C(=O)O.O=C(O)C(=O)O.OO.OO.[Nb]
inactive: dose: 12.5 mg/kg/injection, schedule: Q01DX009 (ip), vehicle: saline 98 % of control

CN(C)CCCN1c2ccccc2CCc2ccccc21
inactive: [1] 115 % of control | [2] 109 % of control

O=c1cc(N2CCOCC2)n2ccccc2n1
inactive: [3] 96 % of control | [4] 102 % of control | [5] 96 % of control

Cc1ccccc1C1(O)CCCCC1
inactive: dose: 50.0 mg/kg/injection, schedule: Q01DX009 (ip), vehicle: saline with Tween-80 105 % of control | dose: 100.0 mg/kg/injection, schedule: Q01DX009 (ip), vehicle: saline with Tween-80 107 % of control | dose: 200.0 mg/kg/injection, schedule: Q01DX009 (ip), vehicle: saline with Tween-80 101 % of control

COc1cccc(OCC(=O)O)c1OC
inactive: [6] 98 % of control | [7] 97 % of control

O=C1OC(=O)C2c3ccccc3C=CC12 (stereo not given)
inactive: dose: 25.0 mg/kg/injection, schedule: Q01DX001 (ip), vehicle: saline with Tween-80 98 % of control | dose: 50.0 mg/kg/injection, schedule: Q01DX001 (ip), vehicle: saline with Tween-80 98 % of control | dose: 100.0 mg/kg/injection, schedule: Q01DX001 (ip), vehicle: saline with Tween-80 104 % of control | dose: 200.0 mg/kg/injection, schedule: Q01DX001 (ip), vehicle: saline with Tween-80 120 % of control | dose: 400.0 mg/kg/injection, schedule: Q01DX001 (ip), vehicle: saline with Tween-80 113 % of control

CC(=O)OCCNc1n[nH]c(=O)c2cnccc12
inactive: [8] 110 % of control | [1] 104 % of control | [2] 101 % of control | [9] 103 % of control

COC(=O)/C=C/CCOC1CCCCO1 (stereo not given)
inactive: dose: 50.0 mg/kg/injection, schedule: Q01DX009 (ip), vehicle: other 108 % of control | dose: 100.0 mg/kg/injection, schedule: Q01DX009 (ip), vehicle: other 112 % of control | dose: 200.0 mg/kg/injection, schedule: Q01DX009 (ip), vehicle: other 107 % of control

O=C(NCCNC(=O)c1cc(Cl)cc(Cl)c1O)c1cc(Cl)cc(Cl)c1O
inactive: dose: 15.0 mg/kg/injection, schedule: Q01DX005 (ip), vehicle: saline with Tween-80 92 % of control | [8] 92 % of control | [1] 87 % of control and 89 % of control

CN1CCO[Si](C)(C)C[Si](C)(C)OCC1
inactive: [3] 103 % of control | [4] 102 % of control | [5] 105 % of control

O=C(O)c1ccccc1.[Eu]
inactive: dose: 12.5 mg/kg/injection, schedule: Q01DX009 (ip), vehicle: Klucel (hydroxypropylcellulose) (HPC) 88 % of control | dose: 25.0 mg/kg/injection, schedule: Q01DX009 (ip), vehicle: Klucel (hydroxypropylcellulose) (HPC) 87 % of control | [10] 89 % of control and 92 % of control | [11] 90 % of control | [12] 89 % of control

C=C(C)c1nn(-c2ccccc2)c2c1C(=O)CC(C)O2 (stereo not given)
inactive: [1] 98 % of control | [2] 100 % of control | [9] 98 % of control

COC(=O)/C=C/C(=O)NC(O)C(Cl)(Cl)Cl (stereo not given)
inactive: [13] 102 % of control | [14] 107 % of control | [15] 102 % of control

Cc1ccc[n+](CCC(N)=O)c1
inactive: dose: 100.0 mg/kg/injection, schedule: Q04DX003 (ip), vehicle: saline 100 % of control | dose: 200.0 mg/kg/injection, schedule: Q04DX003 (ip), vehicle: saline 100 % of control | dose: 400.0 mg/kg/injection, schedule: Q04DX003 (ip), vehicle: saline 95 % of control

CC1(C2CCC3(C)OC3C2)CO1 (stereo not given)
inactive: [13] 100 % of control | [14] 100 % of control | [15] 100 % of control

O=[N+]([O-])c1ccc(N=Nc2c(-c3ccccc3)nn(C(=S)S)c2-c2ccccc2)cc1
inactive: [16] 92 % of control | dose: 200.0 mg/kg/injection, schedule: Q04DX002 (ip), vehicle: saline with Tween-80 97 % of control | dose: 400.0 mg/kg/injection, schedule: Q04DX002 (ip), vehicle: saline with Tween-80 101 % of control

O=C1CN(CCCCl)CC(=O)N2Cc3ccccc3CN12
inactive: [13] 106 % of control | [14] 101 % of control | [15] 99 % of control

CN(Cc1nc(-c2ccccc2)no1)c1nc(-c2ccccc2)no1
inactive: [6] 97 % of control | [7] 109 % of control | dose: 400.0 mg/kg/injection, schedule: Q01DX001 (ip), vehicle: Klucel (hydroxypropylcellulose) (HPC) 95 % of control

CN=C(N)NN=C(c1ccc(I)cc1)c1ccc(I)cc1
inactive: dose: 25.0 mg/kg/injection, schedule: Q04DX002 (ip), vehicle: saline with Tween-80 104 % of control | dose: 50.0 mg/kg/injection, schedule: Q04DX002 (ip), vehicle: saline with Tween-80 106 % of control | [16] 104 % of control

O=[N+]([O-])c1ccc(N/N=C(\C(=N/Nc2ccc([N+](=O)[O-])cc2[N+](=O)[O-])c2ccccc2)c2ccccc2)c([N+](=O)[O-])c1
inactive: dose: 50.0 mg/kg/injection, schedule: Q04DX003 (ip), vehicle: saline with Tween-80 103 % of control | dose: 100.0 mg/kg/injection, schedule: Q04DX003 (ip), vehicle: saline with Tween-80 91 % of control | dose: 200.0 mg/kg/injection, schedule: Q04DX003 (ip), vehicle: saline with Tween-80 91 % of control

CCCc1nc(NC(=O)c2ccccc2)nc(NC(=O)c2ccccc2)n1
inactive: [13] 102 % of control | [14] 106 % of control | [15] 106 % of control

CC(C#N)(C#N)N=Nc1ccc(Br)cc1
inactive: [13] 106 % of control | [14] 105 % of control

O=C(CCSCCC(=O)N/N=C/C(O)C(O)C(O)C(O)CO)N/N=C/C(O)C(O)C(O)C(O)CO (stereo not given)
inactive: [13] 99 % of control | dose: 50.0 mg/kg/injection, schedule: Q01DX005 (ip), vehicle: saline 97 % of control | [14] 98 % of control | dose: 100.0 mg/kg/injection, schedule: Q01DX005 (ip), vehicle: saline 98 % of control | [15] 96 % of control | dose: 200.0 mg/kg/injection, schedule: Q01DX005 (ip), vehicle: saline 99 % of control

N#CC1C(=O)NC(=O)C(C#N)C1C(Cl)(Cl)Cl (stereo not given)
inactive: [10] 100 % of control | [11] 93 % of control | [12] 102 % of control

Cn1nnnc1CCN(CCN(CCc1nnnn1C)/N=C\c1ccccc1)/N=C\c1ccccc1
inactive: dose: 50.0 mg/kg/injection, schedule: Q04DX003 (ip), vehicle: Klucel (hydroxypropylcellulose) (HPC) 95 % of control | dose: 100.0 mg/kg/injection, schedule: Q04DX003 (ip), vehicle: Klucel (hydroxypropylcellulose) (HPC) 95 % of control | dose: 200.0 mg/kg/injection, schedule: Q04DX003 (ip), vehicle: Klucel (hydroxypropylcellulose) (HPC) 96 % of control

O=C1C(N=Nc2cc(Cl)ccc2Cl)C(O)N(c2ccc(Cl)cc2)C(=S)N1c1cccc(Cl)c1Cl (stereo not given)
inactive: dose: 100.0 mg/kg/injection, schedule: Q04DX002 (ip), vehicle: Klucel (hydroxypropylcellulose) (HPC) 100 % of control | dose: 200.0 mg/kg/injection, schedule: Q04DX002 (ip), vehicle: Klucel (hydroxypropylcellulose) (HPC) 101 % of control | dose: 400.0 mg/kg/injection, schedule: Q04DX002 (ip), vehicle: Klucel (hydroxypropylcellulose) (HPC) 99 % of control
